Test results from patent US20220146526A1, “METHOD FOR EVALUATING SAMPLE, ANALYSIS METHOD, METHOD FOR DETECTING DEGRADED SAMPLE, MARKER FOR DETECTING DEGRADED BLOOD PLASMA SAMPLE, AND MARKER FOR DETECTING DEGRADED SERUM SAMPLE” (SHIMADZU CORPORATION, priority 2019, published 2022).
“Also recorded” adds a separate entry of the source. Blank lines part the entries; values can stand above or below the compound they belong to.

Assays:
Type in all cases: physicochemical, human
[1] = GC/MS of blood plasma sample: time from blood collection to cooling of blood (Table B); set-up: key to Rate of increase or decrease / Rate of increase or decrease (first value, increase): detection intensity relative to 1 at cooling time ≤1 min; settings: for Rate of increase or decrease: detection intensity relative to 1 at 1 minute or less, blood collection to cooling 5 minutes; for Increase or decrease: detection intensity, blood collection to cooling 5 minutes or more vs 1 minute or less; for Rate of increase or decrease (second value, decrease) / Rate of increase or decrease (first value, increase): different from individual to individual, relative to 1 at 1 minute or less, collection to cooling 5 minutes; for Rate of increase or decrease (second value, decrease): individuals with decrease; for Rate of increase or decrease (first value, increase): individuals with increase
Protocol: (§1) At room temperature, 5 mL of blood from a healthy subject was taken into a blood-collecting vessel containing EDTA, and the blood-collecting vessel was inverted for mixing, then cooled, and allowed to stand at 4° C. Here, in order to investigate how the detection intensity of molecules contained in the sample was affected in a case where the time to cooling was set to 5 minutes or more as compared to that in a case where the time to cooling was set to 1 minute or less, preparations were performed under both the former condition and the latter condition. After standing, the blood sample was subjected to centrifugation under a condition of 4° C., 3000 rpm, and 15 minutes. […] After centrifugation, the blood-collecting vessel was left to stand at room temperature for 30 minutes, and the blood plasma was isolated during this 30 minutes. The obtained blood plasma sample was frozen and stored. Here, in order to investigate how the detection intensity of molecules contained in the sample was affected in cases where freezing and thawing was performed 4 times, 6 times, and 10 times after freezing as compared to that in a case where freezing and thawing was performed 2 times after freezing, freezing and thawing was performed under the respective conditions of 2, 4, 6, and 10 times.
(§2) Frozen blood plasma samples and serum samples were subjected to GC/MS or LC/MS. In GC/MS, the blood plasma samples and serum samples were subjected to methoxymation and trimethylsilylation and then introduced to GC-MS.
(§3) GC/MS was conducted using GCMS·TQ8040 (Shimadzu Corporation) that was a GC·MS equipped with AOC·20i (Shimadzu Corporation) as an autosampler.
(§4) Column: BPX5 (inner diameter of 0.25 mm, length of 30 m, and film thickness of 0.25 μm) (SGE)
(§5) Column temperature: maintained at 60° C. for 2 minutes, then raised at 15° C./min, and maintained at 330° C. for 3 minutes.
(§6) Inlet temperature: 250° C.
(§7) Carrier gas control mode: constant linear velocity of 39.0 cm/sec
(§8) Sample introduction method: split (split ratio of 30:1) Injection volume: 1 μL
(§9) Ionization method: electron ionization
(§10) Ionization current: 60 μA
(§11) Interface temperature: 280° C.
(§12) Ion source temperature: 200° C.
(§13) Mode: multiple reaction monitoring (MRM)
Table B presents compounds of which the detection intensity increased or decreased by 30% or more in a case where the time from blood collection to cooling of blood, when a blood plasma sample was analyzed by GC/MS, was set to 5 minutes or more as compared to that in a case where the time was set to 1 minute or less. The rate of increase or decrease in Table B is the value of detection intensity relative to 1 that is the detection intensity in a case where the time from blood collection to cooling is set to 1 minute or less.

[2] = GC/MS of blood plasma sample: number of times of freezing and thawing (Table C); settings: for Rate of increase or decrease: detection intensity relative to 1 at 2 times; for Increase or decrease: detection intensity
Protocol: as §1, §2, §3, §4, §5, §6, §7, §8, §9, §10, §11, §12, §13
The rate of increase or decrease in Table C is the value of detection intensity relative to 1 that is the detection intensity in a case where the number of times of freezing and thawing is set to 2 times.

[3] = GC/MS of blood plasma sample: time from blood collection to centrifugation (Table A); settings: for Increase or decrease: detection intensity; for Increase or decrease / Rate of increase or decrease: blood collection to centrifugation; for Rate of increase or decrease (second value, decrease) / Rate of increase or decrease (first value, increase): different from individual to individual, relative to 1 at 15 minutes, collection to centrifugation, after 4 hours; for Rate of increase or decrease (second value, decrease): individuals with decrease; for Rate of increase or decrease (first value, increase): individuals with increase; for Rate of increase or decrease: detection intensity relative to 1 at 15 minutes
Protocol: as §1, §2, §3, §4, §5, §6, §7, §8, §9, §10, §11, §12, §13
The rate of increase or decrease in Table A is the value of detection intensity relative to 1 that is the detection intensity in a case where the time from blood collection to centrifugation is set to 15 minutes.

[4] = GC/MS of serum sample: number of times of freezing and thawing (Table I); set-up: key to Rate of increase or decrease / Rate of increase or decrease (first value, increase): detection intensity relative to 2 freeze-thaw cycles = 1; settings: for Number of times when compound is affected: detection intensity changed by 30% or more vs 2 times of freezing and thawing
How it was run: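 Serum was isolated after centrifugation at room temperature (3500 rpm, 5 min), frozen, and put through 2, 4, 6 or 10 freeze–thaw cycles. Samples were methoxymated and trimethylsilylated, then run by electron-ionization GC/MS in MRM mode on a BPX5 column (60 to 330 °C). Detection intensity is given relative to the 2-cycle sample, set as 1.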

[5] = GC/MS of serum sample: time from blood collection to centrifugation (Table G); settings: blood collection to centrifugation; for Rate of increase or decrease: detection intensity relative to 1 at 15 minutes; for Increase or decrease: detection intensity
How it was run: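 Blood was held for varying times before centrifugation (room temperature, 3500 rpm, 5 min); serum was frozen, then methoxymated and trimethylsilylated for GC/MS with electron ionization in MRM mode. Values are detection intensities relative to the 15-minute collection-to-centrifugation condition, set as 1.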

[6] = GC/MS of serum sample: time from centrifugation to isolation (Table H); set-up: key to Rate of increase or decrease / Rate of increase or decrease (first value, increase): detection intensity relative to 1 at 30 min centrifugation-to-isolation; settings: for Rate of increase or decrease: detection intensity relative to 1 at 30 minutes; for Increase or decrease: detection intensity
How it was run: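 Blood was centrifuged at room temperature, 3500 rpm, 5 min, and the vessel left at room temperature for 30 min, 1 h or 6 h before serum isolation. Serum was methoxymated, trimethylsilylated and analysed by GC/MS with electron ionization in MRM mode; intensities expressed relative to the 30-min condition (=1).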

[7] = LC/MS of blood plasma sample: time from blood collection to centrifugation (Table D); settings: blood collection to centrifugation
How it was run: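 Healthy-subject blood (5 mL, EDTA) cooled and held at 4 °C before centrifugation (4 °C, 3000 rpm, 15 min), with plasma then frozen. LC/MS on Discovery HS F5-3 column at 40 °C, 0.1% formic acid water/acetonitrile, 0.25 mL/min, electrospray, MRM; intensities relative to 15 min collection-to-centrifugation set as 1.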

[8] = LC/MS of serum sample: number of times of freezing and thawing (Table M); set-up: key to Rate of increase or decrease: detection intensity relative to 1 at 2 freeze-thaw cycles
How it was run: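 Serum was isolated at room temperature after centrifugation at room temperature, 3500 rpm, 5 minutes, then frozen and freeze-thawed 2, 4, 6 or 10 times. LC/MS used a Discovery HS F5-3 column at 40° C with formic acid water/acetonitrile, electrospray MRM. Intensity is relative to 2 freeze-thaw cycles.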

[9] = detection intensity relative to 1 at 2 times, serum, GC/MS, freezing and thawing 4 times
[10] = detection intensity, serum, GC/MS, freezing and thawing 4 times vs 2 times
[11] = serum sample, GC/MS, detection intensity vs 2 times of freezing and thawing
[12] = 10 times of freezing and thawing, relative to 1 at 2 times, different from individual to individual, first value (increase)
[13] = 10 times of freezing and thawing, relative to 1 at 2 times, different from individual to individual, second value (decrease)

Structure (SMILES): CC(C)CC(O)C(=O)O (stereo not shown) [2-Hydroxyisocaproic acid]
Rate of increase or decrease [1]: 1.31
Increase or decrease [1]: Increase
Rate of increase or decrease ([2]; freezing and thawing 6 times): 0.66
Increase or decrease ([2]; freezing and thawing 6 times vs 2 times): Decrease

Structure (SMILES): O=C(O)C(O)Cc1ccccc1 (stereo not shown) [3-Phenyllactic acid]
Increase or decrease [1]: Different from individual
Rate of increase or decrease (second value, decrease) [1]: 0.60
Rate of increase or decrease (first value, increase) [1]: 1.47
Rate of increase or decrease ([2]; freezing and thawing 10 times): 0.62
Increase or decrease ([2]; freezing and thawing 10 times vs 2 times): Decrease
Rate of increase or decrease [4, 9]: 0.68
Increase or decrease [4, 10]: Decrease

Structure (SMILES): O=C1CCNC(=O)N1 [Dihydrouracil]
Rate of increase or decrease [1]: 1.42
Increase or decrease [1]: Increase
Rate of increase or decrease ([5]; after 4 hours): 3.17
Rate of increase or decrease ([5]; after 12 hours): 1.30
Increase or decrease ([5]; after 4 hours vs 15 minutes): Increase
Increase or decrease ([5]; after 12 hours vs 15 minutes): Decrease
Rate of increase or decrease ([6]; after 1 hour): 0.30
Increase or decrease ([6]; after 1 hour vs 30 minutes): Decrease
Increase or decrease [4, 10]: Increase; also recorded: Decrease

Structure (SMILES): NCCS(=O)O [Hypotaurine]
Rate of increase or decrease ([3]; after 8 hours): 1.36
Increase or decrease ([3]; after 8 hours vs 15 minutes): Increase
Rate of increase or decrease [1]: 1.43
Increase or decrease [1]: Increase
Rate of increase or decrease ([5]; after 4 hours): 1.69
Increase or decrease ([5]; after 4 hours vs 15 minutes): Increase

Structure (SMILES): Cn1c(=O)[nH]c2ncn(C)c2c1=O [Paraxanthine]
Increase or decrease [1]: Different from individual
Rate of increase or decrease (second value, decrease) [1]: 0.67
Rate of increase or decrease (first value, increase) [1]: 2.33
Rate of increase or decrease ([5]; after 4 hours): 2.98
Increase or decrease ([5]; after 4 hours vs 15 minutes): Increase
Increase or decrease ([6]; after 6 hours vs 30 minutes): Different from individual
Rate of increase or decrease (second value, decrease) ([6]; different from individual to individual, individuals with decrease, relative to 1 at 30 minutes, after 6 hours): 0.61
Rate of increase or decrease (first value, increase) ([6]; different from individual to individual, individuals with increase, relative to 1 at 30 minutes, after 6 hours): 2.04
Rate of increase or decrease [4, 12]: 2.65
Rate of increase or decrease [4, 13]: 0.63
Number of times when compound is affected ([4]; serum sample, GC/MS): 10 times
Increase or decrease [4, 11]: Different from individual

Other lines, results leading:

Increase or decrease ([3]; after 4 hours vs 15 minutes): Different from individual
Rate of increase or decrease (second value, decrease) [3]: 0.64
Rate of increase or decrease (first value, increase) [3]: 1.48
Rate of increase or decrease [1]: 0.67
Increase or decrease [1]: Decrease
Structure (SMILES): CCC(=O)C(=O)O [2-Ketobutyric acid]

Rate of increase or decrease [1]: 0.61
Increase or decrease [1]: Decrease
Rate of increase or decrease ([5]; after 4 hours): 1.40
Increase or decrease ([5]; after 4 hours vs 15 minutes): Increase
Rate of increase or decrease ([4]; 10 times of freezing and thawing, detection intensity relative to 1 at 2 times): 0.66
Number of times when compound is affected ([4]; serum sample, GC/MS): 10 times
Increase or decrease [4, 11]: Decrease
Structure (SMILES): O=C(O)CO [Glycolic acid]

Increase or decrease ([3]; after 4 hours vs 15 minutes): Different from individual
Rate of increase or decrease (second value, decrease) [3]: 0.32
Rate of increase or decrease (first value, increase) [3]: 3.80
Rate of increase or decrease [1]: 1.58
Increase or decrease [1]: Increase
Rate of increase or decrease ([5]; after 4 hours): 1.31
Increase or decrease ([5]; after 4 hours vs 15 minutes): Increase
Rate of increase or decrease ([6]; after 6 hours): 1.67
Increase or decrease ([6]; after 6 hours vs 30 minutes): Increase
Rate of increase or decrease [4, 9]: 0.61
Increase or decrease [4, 10]: Decrease
Structure (SMILES): O=C(O)C(=O)O [Oxalic acid]

Rate of increase or decrease ([3]; after 12 hours): 1.89
Increase or decrease ([3]; after 12 hours vs 15 minutes): Increase
Rate of increase or decrease [1]: 0.49
Increase or decrease [1]: Decrease
Rate of increase or decrease ([7]; detection intensity relative to 1 at 15 minutes, after 12 hours): 1.52
Increase or decrease ([7]; detection intensity, after 12 hours vs 15 minutes): Increase
Rate of increase or decrease ([5]; after 8 hours): 0.69
Increase or decrease ([5]; after 8 hours vs 15 minutes): Decrease
Rate of increase or decrease [4, 12]: 1.33
Rate of increase or decrease [4, 13]: 0.66
Number of times when compound is affected ([4]; serum sample, GC/MS): 10 times
Increase or decrease [4, 11]: Different from individual
Rate of increase or decrease ([8]; 6 times of freezing and thawing, detection intensity relative to 1 at 2 times): 0.70
Number of times when compound is affected ([8]; serum sample, LC/MS, detection intensity changed by 30% or more vs 2 times of freezing and thawing): 6 times
Increase or decrease ([8]; serum sample, LC/MS, detection intensity vs 2 times of freezing and thawing): Decrease
Structure (SMILES): O=c1[nH]c(=O)c2[nH]c(=O)[nH]c2[nH]1 [Uric acid]
